Experiments:
[1] = test system: 16 day Indian Meal Moth larvae; assay: Exposure of 16 day larvae to methoprene for varying periods of time; format: in vivo, Plodia Interpunctella; conditions: 1000 wppm MP
Protocol: An experiment was set up to determine the effect of exposing 16 day Indian Meal Moth larvae to methoprene for varying periods of time. The treatment levels tested were control at 0 wppm methoprene and 1000 wppm methoprene. Five larvae (3 females, 2 males) per sample were added to paper treated with the coating composition described in Example 1. The larvae were exposed to the samples for different amount of time. The times of exposure were 0 hrs., 20 min., 1 hr., 2 hrs., 4 hrs., 8 hrs., and 24 hrs. After larvae were exposed for the set amount of time, they were placed in an incubator (Precision Model No. 815) at 80° F. (27° C.) and at a relative humidity of 60 percent, where they were allowed to pupate, become adults, and reproduce. Observations were obtained throughout a 16 day period. From when adults hatched, the number of adults were counted and averaged over the remainder of the experiment. The number of new eggs were also counted and the average number of eggs per adult was calculated. Generally, egg production decreased as treatment levels increased.

Indian Meal Moth adults = assay: Adult exposure to liquid methoprene in a UV coating: egg production and viability; format: in vivo, Plodia Interpunctella; conditions: for Total Percent Reduction: compared to the control; for Total No. of Eggs: eggs collected over 8 days; for Total No. of Viable Eggs: eggs that hatched
Protocol: An experiment was set up to determine how egg production would be affected when Indian Meal Moth adults were exposed to liquid methoprene in a UV coating. Adults were allowed to emerge into jars lined with treated paper. The treatment levels tested were a control at 0 wppm to 1000 wppm increasing by increments of 10×. A combination treatment of liquid methoprene at 1000 wppm and 1 weight percent diatomaceous earth was also tested. The eggs produced fell to a treated surface before being collected and placed into rearing food. Observations and egg collections were taken over a […] period.
The adults came from stock insects and the number exposed per treatment was not predetermined. The total number of eggs represents all eggs per treatment collected over 8 days. The total number of viable eggs represents the number of eggs that hatched. These larvae were allowed to feed for 14 days before counting.

[2] = test system: day 16 larvae of the Indian Meal Moth, Plodia Interpunctella; assay: Effect of methoprene at low concentrations: day 16 larvae on treated paper (behavior, webbing, survival over 19 days); format: in vivo
Protocol: An experiment was set up to determine the effectiveness of methoprene at very low concentrations on day 16 larvae of the Indian Meal Moth, Plodia Interpunctella. The concentrations tested ranged from the control at 0 wppm to 1000 wppm increasing by increments of 10×. Ten larvae per sample were added to the treated paper and exposed throughout the experiment in an incubator (Precision Model No. 815) at 80° F. (27° C.) and at a relative humidity of 60 percent. Behavior, webbing characteristics and survival rates were observed over 19 days.
The coating formulation components (excluding methoprene) and preparation procedure are described in Table 1, below.
As the Benzophenone was added to the mixture in step 7, above, the mixture was stirred in a mixer at 1500 rpm and at a temperature of 70° F. (21° C.) until the benzophenone was dissolved. As the methoprene was added to the mixture in step 8, above, the mixture was stirred in a mixer at 1500 rpm and at a temperature of 89° F. (32° C.).

In the case of COC(C)(C)CCCC(C)C/C=C/C(C)=C/C(=O)OC(C)C (centres unmarked) [methoprene, isopropyl-(2E, 4E)-11-methoxy-3,7,11-trimethyl-2,4-dodecadienoate], the “Average No. of Adults/Day” value ([1]; time exposed 20 min.) is reported as 10, the “Average No. of Eggs/Adult” value ([1]; time exposed 20 min.) is reported as 34 and the “Average No. of Adults/Day” value ([1]; time exposed 1 hr.) is reported as 12. The “Average No. of Eggs/Adult” value ([1]; time exposed 1 hr.) was 30, the “Average No. of Adults/Day” value ([1]; time exposed 2 hrs.) was 12 and the “Average No. of Eggs/Adult” value ([1]; time exposed 2 hrs.) was 19. The “Average No. of Adults/Day” value ([1]; time exposed 4 hrs.) was 10, the “Average No. of Eggs/Adult” value ([1]; time exposed 4 hrs.) was 25 and the “Average No. of Adults/Day” value ([1]; time exposed 8 hrs.) was 9. For the same compound, the “Average No. of Eggs/Adult” value ([1]; time exposed 8 hrs.) was 17, the “Average No. of Adults/Day” value ([1]; time exposed 24 hrs.) was 7 and the “Average No. of Eggs/Adult” value ([1]; time exposed 24 hrs.) was 9. The “Percent Viable Eggs” value (Indian Meal Moth adults; 10 wppm MP) was 7.5%, the “Total Percent Reduction” value (Indian Meal Moth adults; 10 wppm MP) was 85.6% and the “Total No. of Eggs” value (Indian Meal Moth adults; 10 wppm MP) was 1430. For the same compound, the “Total No. of Viable Eggs” value (Indian Meal Moth adults; 10 wppm MP) was 108, the “Percent Viable Eggs” value (Indian Meal Moth adults; 100 wppm MP) was 18% and the “Total Percent Reduction” value (Indian Meal Moth adults; 100 wppm MP) was 65.4%. For the same compound, the “Total No. of Eggs” value (Indian Meal Moth adults; 100 wppm MP) was 1285, the “Total No. of Viable Eggs” value (Indian Meal Moth adults; 100 wppm MP) was 234 and the “Percent Viable Eggs” value (Indian Meal Moth adults; 1000 wppm MP) was 36%. For the same compound, the “Total Percent Reduction” value (Indian Meal Moth adults; 1000 wppm MP) was 30.8%, the “Total No. of Eggs” value (Indian Meal Moth adults; 1000 wppm MP) was 1190 and the “Total No. of Viable Eggs” value (Indian Meal Moth adults; 1000 wppm MP) was 432. For the same compound, the “SURVIVAL RATE” value ([2]; 1 wppm methoprene in coating, day 4) was 8 number of larvae surviving out of 10 larvae, the “SURVIVAL RATE” value ([2]; 1 wppm methoprene in coating, day 7) was 7 number of larvae surviving out of 10 larvae and the “SURVIVAL RATE” value ([2]; 1 wppm methoprene in coating, day 11) was 6 number of larvae surviving out of 10 larvae. For the same compound, the “SURVIVAL RATE” value ([2]; 1 wppm methoprene in coating, day 13) was 5 number of larvae surviving out of 10 larvae, the “SURVIVAL RATE” value ([2]; 1 wppm methoprene in coating, day 19) was 1 number of larvae surviving out of 10 larvae and the “SURVIVAL RATE” value ([2]; 10 wppm methoprene in coating, day 4) was 8 number of larvae surviving out of 10 larvae. The “SURVIVAL RATE” value ([2]; 10 wppm methoprene in coating, day 7) was 8 number of larvae surviving out of 10 larvae, the “SURVIVAL RATE” value ([2]; 10 wppm methoprene in coating, day 11) was 7 number of larvae surviving out of 10 larvae and the “SURVIVAL RATE” value ([2]; 10 wppm methoprene in coating, day 13) was 7 number of larvae surviving out of 10 larvae. For the same compound, the “SURVIVAL RATE” value ([2]; 10 wppm methoprene in coating, day 19) was 2 number of larvae surviving out of 10 larvae, the “SURVIVAL RATE” value ([2]; 100 wppm methoprene in coating, day 4) was 6 number of larvae surviving out of 10 larvae and the “SURVIVAL RATE” value ([2]; 100 wppm methoprene in coating, day 7) was 4 number of larvae surviving out of 10 larvae. The “SURVIVAL RATE” value ([2]; 100 wppm methoprene in coating, day 11) was 1 number of larvae surviving out of 10 larvae, the “SURVIVAL RATE” value ([2]; 100 wppm methoprene in coating, day 13) was 1 number of larvae surviving out of 10 larvae and the “SURVIVAL RATE” value ([2]; 100 wppm methoprene in coating, day 19) was 1 number of larvae surviving out of 10 larvae. The “SURVIVAL RATE” value ([2]; 1000 wppm methoprene in coating, day 4) was 7 number of larvae surviving out of 10 larvae, the “SURVIVAL RATE” value ([2]; 1000 wppm methoprene in coating, day 7) was 5 number of larvae surviving out of 10 larvae and the “SURVIVAL RATE” value ([2]; 1000 wppm methoprene in coating, day 11) was 3 number of larvae surviving out of 10 larvae. The “SURVIVAL RATE” value ([2]; 1000 wppm methoprene in coating, day 13) was 3 number of larvae surviving out of 10 larvae, the “SURVIVAL RATE” value ([2]; 1000 wppm methoprene in coating, day 19) was 0 number of larvae surviving out of 10 larvae and the Behavior ([2]; exposed larvae, as early as day 4 of the testing period, increased nipping and cannibalism) was “showed signs of aggression”. The Webbing characteristics ([2]; larvae exposed to 1 wppm methoprene) was “slightly thicker throughout the dish than the control”, the Webbing characteristics ([2]; larvae exposed to 10 wppm methoprene) was “thicker, more centralized webbing” and the Webbing characteristics ([2]; larvae exposed to 10 wppm methoprene (second mention, compared with the 10 wppm sample)) was “dense and more centralized than the 10 wppm methoprene sample”. The Webbing characteristics ([2]; larvae exposed to 1000 wppm methoprene) was “completely centralized mound of webbing” and the “survival rate compared to the control sample” value ([2]; treatment levels as low as 1 wppm) was “significant decrease in survival rate”.

Source: patent publication US7250396B2, “Juvenile hormone compositions and methods for making same” (priority 2003, dated 2007)
